# Assay results reported in patent US20120129928A1, “Chlorine-Free Liquid Microbicide Treatment” (University of Georgia Research Foundation, Inc., priority 2010, published 2012).
# Read-outs that look alike come from different tables or passages of the source.
# Key:
# S. enteritidis = experiment: Reduction of S. enteritidis in water treated with organic acids and SDS; format: cell-based, Salmonella enteritidis; details: water; for S. enteritidis counts: 21° C.; for Salmonella reduction: contact for 30 minutes
# S. typhimurium DT 104 = format: cell-based, Salmonella typhimurium DT104; details: water, 21° C.
# L. monocytogenes = format: cell-based, Listeria monocytogenes; details: 21° C.
# [1] = system: spores of Bacillus anthracis Sterne; format: cell-based, Bacillus anthracis Sterne (34F2)
# various yeast species = experiment: Effect of levulinic acids plus SDS at 21° C. on various yeast species; format: cell-based; details: for Yeast counts at min: 1: 1 min; for Yeast counts at min: 2: 2 min; for Yeast counts at min: 5: 5 min; for Yeast counts at min: 10: 10 min; for Yeast counts at min: 20: 20 min; for Yeast counts at min: 30: 30 min; for Yeast counts at min: 60: 60 min
# [2] = 0 min, listed as 0.5% levulinic acid
# [3] = 0 min, listed as 1.0% levulinic acid
# [4] = 0 min, listed as 2.0% levulinic acid
# [5] = 2 min, listed as 0.5% levulinic acid
# [6] = 2 min, listed as 1.0% levulinic acid
# [7] = 2 min, listed as 2.0% levulinic acid
# [8] = 5 min, listed as 0.5% levulinic acid
# [9] = 5 min, listed as 1.0% levulinic acid
# [10] = 5 min, listed as 2.0% levulinic acid
# [11] = 10 min, listed as 0.5% levulinic acid
# [12] = 10 min, listed as 1.0% levulinic acid
# [13] = 10 min, listed as 2.0% levulinic acid
# [14] = 20 min, listed as 0.5% levulinic acid
# [15] = 20 min, listed as 1.0% levulinic acid
# [16] = 20 min, listed as 2.0% levulinic acid
# [17] = 30 min, listed as 0.5% levulinic acid
# [18] = 30 min, listed as 1.0% levulinic acid
# [19] = 30 min, listed as 2.0% levulinic acid
smiles,measurement,setting,value
CC(=O)CCC(=O)O [levulinic acid],S. enteritidis counts,"S. enteritidis; 0 min, listed as 0.1% levulinic acid",7.1 log CFU/ml
same,S. enteritidis counts,S. enteritidis; [2],7.1 log CFU/ml
same,S. enteritidis counts,S. enteritidis; [3],6.9 log CFU/ml
same,S. enteritidis counts,S. enteritidis; [4],6.7 log CFU/ml
same,S. enteritidis counts,"S. enteritidis; 0 min, listed as 3.0% levulinic acid",6.6 log CFU/ml
same,S. enteritidis counts,"S. enteritidis; 2 min, listed as 0.1% levulinic acid",7.1 log CFU/ml
same,S. enteritidis counts,S. enteritidis; [5],6.8 log CFU/ml
same,S. enteritidis counts,S. enteritidis; [6],6.7 log CFU/ml
same,S. enteritidis counts,S. enteritidis; [7],6.7 log CFU/ml
same,S. enteritidis counts,"S. enteritidis; 2 min, listed as 3.0% levulinic acid",6.8 log CFU/ml
same,S. enteritidis counts,"S. enteritidis; 5 min, listed as 0.1% levulinic acid",6.9 log CFU/ml
same,S. enteritidis counts,S. enteritidis; [8],6.9 log CFU/ml
same,S. enteritidis counts,S. enteritidis; [9],6.8 log CFU/ml
same,S. enteritidis counts,S. enteritidis; [10],6.7 log CFU/ml
same,S. enteritidis counts,"S. enteritidis; 5 min, listed as 3.0% levulinic acid",6.5 log CFU/ml
same,S. enteritidis counts,"S. enteritidis; 10 min, listed as 0.1% levulinic acid",7.0 log CFU/ml
same,S. enteritidis counts,S. enteritidis; [11],6.9 log CFU/ml
same,S. enteritidis counts,S. enteritidis; [12],6.9 log CFU/ml
same,S. enteritidis counts,S. enteritidis; [13],6.8 log CFU/ml
same,S. enteritidis counts,"S. enteritidis; 10 min, listed as 3.0% levulinic acid",6.2 log CFU/ml
same,S. enteritidis counts,"S. enteritidis; 20 min, listed as 0.1% levulinic acid",6.9 log CFU/ml
same,S. enteritidis counts,S. enteritidis; [14],6.6 log CFU/ml
same,S. enteritidis counts,S. enteritidis; [15],6.9 log CFU/ml
same,S. enteritidis counts,S. enteritidis; [16],6.5 log CFU/ml
same,S. enteritidis counts,"S. enteritidis; 20 min, listed as 3.0% levulinic acid",5.1 log CFU/ml
same,S. enteritidis counts,"S. enteritidis; 30 min, listed as 0.1% levulinic acid",6.9 log CFU/ml
same,S. enteritidis counts,S. enteritidis; [17],6.7 log CFU/ml
same,S. enteritidis counts,S. enteritidis; [18],6.7 log CFU/ml
same,S. enteritidis counts,S. enteritidis; [19],6.0 log CFU/ml
same,S. enteritidis counts,"S. enteritidis; 30 min, listed as 3.0% levulinic acid",3.8 log CFU/ml
same,Salmonella reduction,S. enteritidis; listed as 0.1 to 2.0% by weight levulinic acid,~1 log CFU/ml
same,Salmonella reduction,S. enteritidis; listed as 1% by weight levulinic acid,≤ 1 log CFU/ml
same,Salmonella reduction,S. enteritidis; listed as 3% levulinic acid,3.4 log CFU/ml
same,Salmonella reduction,S. enteritidis; listed as 3.0% levulinic acid,3.4 log CFU/ml
same,S. typhimurium DT 104 counts,S. typhimurium DT 104; 0 min,6.8 log CFU/ml
same,S. typhimurium DT 104 counts,S. typhimurium DT 104; 1 min,6.7 log CFU/ml
same,S. typhimurium DT 104 counts,S. typhimurium DT 104; 2 min,6.6 log CFU/ml
same,S. typhimurium DT 104 counts,S. typhimurium DT 104; 5 min,6.5 log CFU/ml
same,S. typhimurium DT 104 counts,S. typhimurium DT 104; 10 min,6.7 log CFU/ml
same,S. typhimurium DT 104 counts,S. typhimurium DT 104; 20 min,6.6 log CFU/ml
same,S. typhimurium DT 104 counts,S. typhimurium DT 104; 30 min,6.4 log CFU/ml
same,S. typhimurium DT 104 counts,S. typhimurium DT 104; 60 min,5.9 log CFU/ml
same,L. monocytogenes counts,L. monocytogenes; 0 min,6.9 ± 0.1 log CFU/ml
same,L. monocytogenes counts,L. monocytogenes; [2],6.7 ± 0.2 log CFU/ml
same,L. monocytogenes counts,L. monocytogenes; [3],6.8 ± 0.3 log CFU/ml
same,L. monocytogenes counts,L. monocytogenes; [4],6.8 ± 0.3 log CFU/ml
same,L. monocytogenes counts,L. monocytogenes; 2 min,6.9 ± 0.2 log CFU/ml
same,L. monocytogenes counts,L. monocytogenes; [5],6.7 ± 0.1 log CFU/ml
same,L. monocytogenes counts,L. monocytogenes; [6],6.7 ± 0.2 log CFU/ml
same,L. monocytogenes counts,L. monocytogenes; [7],6.8 ± 0.2 log CFU/ml
same,L. monocytogenes counts,L. monocytogenes; 5 min,6.9 ± 0.3 log CFU/ml
same,L. monocytogenes counts,L. monocytogenes; [8],6.8 ± 0.3 log CFU/ml
same,L. monocytogenes counts,L. monocytogenes; [9],6.6 ± 0.3 log CFU/ml
same,L. monocytogenes counts,L. monocytogenes; [10],6.9 ± 0.2 log CFU/ml
same,L. monocytogenes counts,L. monocytogenes; 10 min,6.9 ± 0.1 log CFU/ml
same,L. monocytogenes counts,L. monocytogenes; [11],6.9 ± 0.2 log CFU/ml
same,L. monocytogenes counts,L. monocytogenes; [12],6.6 ± 0.3 log CFU/ml
same,L. monocytogenes counts,L. monocytogenes; [13],6.7 ± 0.2 log CFU/ml
same,L. monocytogenes counts,L. monocytogenes; 20 min,6.9 ± 0.3 log CFU/ml
same,L. monocytogenes counts,L. monocytogenes; [14],6.7 ± 0.2 log CFU/ml
same,L. monocytogenes counts,L. monocytogenes; [15],6.6 ± 0.0 log CFU/ml
same,L. monocytogenes counts,L. monocytogenes; [16],6.9 ± 0.2 log CFU/ml
same,L. monocytogenes counts,L. monocytogenes; 30 min,6.8 ± 0.3 log CFU/ml
same,L. monocytogenes counts,L. monocytogenes; [17],6.8 ± 0.2 log CFU/ml
same,L. monocytogenes counts,L. monocytogenes; [18],6.6 ± 0.3 log CFU/ml
same,L. monocytogenes counts,L. monocytogenes; [19],6.8 ± 0.2 log CFU/ml
same,CFU % recovery (as compared to control flask F),"[1]; Experiment A3, 10 min",81%
same,CFU % recovery (as compared to control flask F),"[1]; Experiment A3, 45 min",55%
same,CFU % recovery (as compared to control flask F),"[1]; Experiment A3, 90 min",64%
same,CFU % recovery (as compared to control flask F),"[1]; Experiment A4 absent heat, RT, 0 min",89%
same,CFU % recovery (as compared to control flask F),"[1]; Experiment A4 absent heat, RT, 1 h",54%
same,CFU % recovery (as compared to control flask F),"[1]; Experiment A4 absent heat, RT, 2 h",27%
same,CFU % recovery (as compared to control flask F),"[1]; Experiment A4 absent heat, RT, 3 h",30%
same,CFU % recovery (as compared to control flask F),"[1]; Experiment A4 absent heat, RT, 4 h",15%
same,CFU % recovery (as compared to control flask F),"[1]; Experiment A4 with heat, 65° C., 0 min",70%
same,CFU % recovery (as compared to control flask F),"[1]; Experiment A4 with heat, 65° C., 1 h",78%
same,CFU % recovery (as compared to control flask F),"[1]; Experiment A4 with heat, 65° C., 2 h",45%
same,CFU % recovery (as compared to control flask F),"[1]; Experiment A4 with heat, 65° C., 3 h",33%
same,CFU % recovery (as compared to control flask F),"[1]; Experiment A4 with heat, 65° C., 4 h",46%
same,CFU % recovery (as compared to control flask F),"[1]; Experiment A5 absent heat, RT, 1 h",80%
same,CFU % recovery (as compared to control flask F),"[1]; Experiment A5 absent heat, RT, 2 h",46%
same,CFU % recovery (as compared to control flask F),"[1]; Experiment A5 absent heat, RT, 3 h",67%
same,CFU % recovery (as compared to control flask F),"[1]; Experiment A5 absent heat, RT, 4 h",37%
same,CFU % recovery (as compared to control flask F),"[1]; Experiment A5 with heat, 65° C., 0 min",75%
same,CFU % recovery (as compared to control flask F),"[1]; Experiment A5 with heat, 65° C., 1 h",58%
same,CFU % recovery (as compared to control flask F),"[1]; Experiment A5 with heat, 65° C., 2 h",34%
same,CFU % recovery (as compared to control flask F),"[1]; Experiment A5 with heat, 65° C., 3 h",34%
same,CFU % recovery (as compared to control flask F),"[1]; Experiment A5 with heat, 65° C., 4 h",14%
same,Yeast counts at min: 1,various yeast species; Debaryomyces hansenii,4.8 log CFU/ml
same,Yeast counts at min: 2,various yeast species; Debaryomyces hansenii,4.9 log CFU/ml
same,Yeast counts at min: 5,various yeast species; Debaryomyces hansenii,4.6 log CFU/ml
same,Yeast counts at min: 10,various yeast species; Debaryomyces hansenii,4.4 log CFU/ml
same,Yeast counts at min: 20,various yeast species; Debaryomyces hansenii,4.7 log CFU/ml
same,Yeast counts at min: 30,various yeast species; Debaryomyces hansenii,3.0 log CFU/ml
same,Yeast counts at min: 60,various yeast species; Debaryomyces hansenii,1.3 log CFU/ml
same,Yeast counts at min: 1,various yeast species; Geotrichum candidum,4.4 log CFU/ml
same,Yeast counts at min: 2,various yeast species; Geotrichum candidum,4.4 log CFU/ml
same,Yeast counts at min: 5,various yeast species; Geotrichum candidum,4.3 log CFU/ml
same,Yeast counts at min: 10,various yeast species; Geotrichum candidum,4.1 log CFU/ml
same,Yeast counts at min: 20,various yeast species; Geotrichum candidum,3.8 log CFU/ml
same,Yeast counts at min: 30,various yeast species; Geotrichum candidum,3.4 log CFU/ml
same,Yeast counts at min: 60,various yeast species; Geotrichum candidum,2.0 log CFU/ml
same,Yeast counts at min: 1,various yeast species; Saccharomyces cerevisiae,5.3 log CFU/ml
same,Yeast counts at min: 2,various yeast species; Saccharomyces cerevisiae,5.5 log CFU/ml
same,Yeast counts at min: 5,various yeast species; Saccharomyces cerevisiae,5.4 log CFU/ml
same,Yeast counts at min: 10,various yeast species; Saccharomyces cerevisiae,5.3 log CFU/ml
same,Yeast counts at min: 20,various yeast species; Saccharomyces cerevisiae,5.3 log CFU/ml
same,Yeast counts at min: 30,various yeast species; Saccharomyces cerevisiae,5.5 log CFU/ml
same,Yeast counts at min: 60,various yeast species; Saccharomyces cerevisiae,5.0 log CFU/ml
